{"source": "patent US20220298225A1", "about": "“METHODS AND COMPOSITIONS FOR TREATING CANCER WITH COLLAGEN BINDING DRUG CARRIERS” (The University of Chicago, priority 2019, published 2022)", "key": {"B": {"assay": "B", "description": "Table printed on a drawing sheet, FIG. 2A-D\nBlood plasma was collected at indicated time points. […] (B) Plasma half-lives of Dox were calculated using two-phase exponential decay: MFI (t)=Ae^−αt+Be^−βt. t½, α, fast clearance half-life; t½, β, slow clearance half-life. […] At the indicated time points, tumors were harvested, and the amount of Dox within the tumors was quantified (mean±SEM. n=5 for 2 h, n=7 for 24 h per group). […] 1 h after injection, tumors were harvested and fluorescence was analyzed by confocal microscopy. Tissues were also stained with DAPI and anti-CD31 antibody. Scale bar=100 μm. Representative images of 3 tumors, each. Two experimental replicates. Statistical analyses were done using ANOVA with Tukey's test. *p<0.05; **p<0.01; N.S.=not significant."}, "MMTV-PyMT cells": {"tested_on": "MMTV-PyMT cells", "assay": "Cellular uptake of Dox-conjugates (confocal microscopy)", "format": "cell-based, mouse", "settings": "after 1 h of incubation, 50 μM equivalent of Dox", "description": "To evaluate the cellular uptake of Dox-conjugates, MMTV-PyMT cells were seeded in 96 well high content imaging plate (Corning) at 5000 cells/well and incubated overnight. […] After the incubation, cells were washed twice, treated with 75 nM of Lysotracker Deep Red and further incubated 30 min at 37° C. Cells were washed twice and observed by IX83 microscope (Olympus) with ×60 magnification. Images were processed using ImageJ software (NIH). Scale bar; 20 μm."}, "[1]": {"settings": "mouse models; cited from earlier work"}, "[2]": {"assay": "Toxicity profiles in tumor-free FVB mice", "settings": "20 mg/kg Dox basis", "description": "Blood samples were collected from each mouse in EDTA-coated tube by submandibular bleeding on day 3 and day 6 after injection for plasma cytokine analysis and hematological analysis. Body weight of each mouse was measured at indicated time points. On day 16, mice were sacrificed and organs were harvested. Spleens were weighed, and the other organs were used for histological analysis. Mice were sacrificed when more than 15% decrease of initial body weight was observed.\nBlood samples were analyzed using COULTER Ac⋅T 5diff CP hematology analyzer (Beckman coulter) according to the manufacturer's instructions.\nBlood plasma was collected from whole blood sample as described above and stored at −20° C. until use. Cytokine concentrations in plasma were measured using Ready-SET-Go! ELISA kits (eBioscience) and Can Get Signal solution (TOYOBO) according to manufacturer's instructions.\nOrgans were fixed with 2% paraformaldehyde in PBS overnight. After embedding in paraffin, blocks were cut into 5 μm sections, followed by H&E staining."}, "MMTV-PyMT breast cancer [3]": {"tested_on": "MMTV-PyMT breast cancer", "assay": "Tumor-infiltrating lymphocytes by flow cytometry in MMTV-PyMT model", "format": "in vivo, mouse", "settings": "7 days after treatment, 5 mg/kg", "description": "MMTV-PyMT model was prepared as described above. […] Mice were sacrificed on day 14. Cell suspensions were obtained from each tumor as described previously (9). Tumors were harvested and digested in Dulbecco's Modified Eagle Medium (DMEM) supplemented with 2% FBS, 2 mg/mL collagenase D and 40 μg/mL DNase I (Roche) for 30 min at 37° C. Single-cell suspensions were obtained by gently disrupting the organs through a 70 μm cell strainer. Red blood cells were lysed with ACK lysing buffer (Quality Biological). Fixable live/dead cell discrimination was performed using Fixable Viability Dye eFluor 455 (eBioscience) according to the manufacturer's instructions. Following a washing step, cells were stained with specific antibodies for 20 min on ice prior to fixation. Following antibodies were used to stain the cells: CD3 (145-2C11, BD Biosciences), CD4 (RM4-5, BD Biosciences), CD8α (53-6.7, BD Biosciences), CD45 (30-F11, BD Biosciences), and NK1.1 (PK136, BD Biosciences). All flow cytometric analyses were done using a Fortessa flow cytometer (BD Biosciences) and analyzed using FlowJo software (Tree Star)."}, "MMTV-PyMT breast cancer [4]": {"tested_on": "MMTV-PyMT breast cancer", "assay": "MMTV-PyMT murine breast cancer model, anti-tumor efficacy", "format": "in vivo, mouse", "settings": "single i.v. injection 5 mg/kg Dox basis on day 7", "protocol": "The MMTV-PyMT murine breast cancer model was prepared as described previously (9). A total of 5×10^5 MMTV-PyMT cells suspended in 50 μL of PBS were injected subcutaneously into the mammary gland on the right side of each mouse. […] Tumors were measured with a digital caliper at indicated time points, and volumes were calculated as ellipsoids, where V=4/3×3.14×depth/2×width/2×height/2. Mice were sacrificed when tumor volume had reached over 500 mm^3 or when active ulceration was observed. For the therapeutic experiment, FVB mice originated from Charles River origin were used. […] The proportion of mice from different providers was equalized among all groups."}}, "data": [{"molecule": "COc1cccc2c1C(=O)c1c(O)c3c(c(O)c1C2=O)C[C@@](O)(/C(CO)=N/NC(=O)CCCCCN1C(=O)C=CC1=O)C[C@@H]3O[C@H]1C[C@H](N)[C@H](O)[C@H](C)O1", "note": "[Aldoxorubicin]", "values": [{"measurement": "t½, α", "setting": "B", "result": "2.4 ± 0.168", "unit": "min"}, {"measurement": "t½, β", "setting": "B", "result": "22.6 ± 3.3", "unit": "h"}]}, {"molecule": "COc1cccc2c1C(=O)c1c(O)c3c(c(O)c1C2=O)C[C@@](O)(C(=O)CO)C[C@@H]3O[C@H]1C[C@H](N)[C@H](O)[C@H](C)O1", "note": "[Dox, Doxorubicin]", "values": [{"measurement": "intracellular localization of Dox fluorescence", "setting": "MMTV-PyMT cells", "result": "detected in cytoplasm, intracellular acidic organelles, and preferentially in the nucleus"}, {"measurement": "cumulative dose that irreversibly damages cardiac tissue", "setting": "[1]", "result": 15, "unit": "mg/kg"}]}, {"molecule": "COc1cccc2c1C(=O)c1c(O)c3c(c(O)c1C2=O)C[C@@](O)(/C(CO)=N/NC(=O)CCCCCN1C(=O)C=CC1=O)C[C@@H]3O[C@H]1C[C@H](N)[C@H](O)[C@H](C)O1", "note": "[aldoxorubicin]", "values": [{"measurement": "plasma concentration of IFN-γ", "setting": "[2]; day 3", "result": "increased"}, {"measurement": "plasma concentration of IL-5", "setting": "[2]; day 3", "result": "increased"}, {"measurement": "plasma concentration of IL-6", "setting": "[2]; day 3", "result": "increased"}, {"measurement": "plasma concentration of TNF-α", "setting": "[2]; day 3", "result": "increased"}, {"measurement": "white blood cell (WBC) counts", "setting": "[2]; day 3", "result": "significant decrease"}, {"measurement": "hematocrit", "setting": "[2]; day 6", "result": "significant decrease"}, {"measurement": "hemoglobin concentration", "setting": "[2]; day 6", "result": "significant decrease"}, {"measurement": "red blood cell (RBC) counts", "setting": "[2]; day 6", "result": "significant decrease"}, {"measurement": "splenomegaly (spleen weight)", "setting": "[2]; day 16", "result": "induced splenomegaly"}, {"measurement": "number of CD4+ T cells within the tumor per unit tumor mass", "setting": "MMTV-PyMT breast cancer [3]", "result": "not"}, {"measurement": "number of CD8+ T cells within the tumor per unit tumor mass", "setting": "MMTV-PyMT breast cancer [3]", "result": "not"}, {"measurement": "number of NK cells within the tumor per unit tumor mass", "setting": "MMTV-PyMT breast cancer [3]", "result": "not"}, {"measurement": "tumor growth", "setting": "MMTV-PyMT breast cancer [4]", "result": "did not"}]}]}
